Legend:
Assay type in all cases: physicochemical
[1] = Humidity-fastness test, recorded article stored in thermo-hydrostat vessel; conditions: Reference Example printed article; 30° C., 80% RH, 1 week
Procedure: (§1) Reddish purple color square patches of 1 cm×1 cm were printed on a recording medium (trade name: PR-101; manufactured by Canon Inc.) using the above two types of ink on an ink-jet printer, trade name: BJ-F 870; manufactured by Canon Inc. The color patches of Example 2 were heat treated at 120° C. for 1 minute for retro-Diels-Alder reaction of the compound 7 and converted into cyan color patch. The resultant color patches of Example 2 and Reference Example were tested for their light-fastness, gas-fastness, water-fastness and moisture-fastness.
The obtained recorded article was stored in a thermo-hydrostat vessel at 30° C., 80% RH for 1 week, drawn from the vessel and dried, and its change in density before and after the test was determined. • A: Density reduction rate of 1% or less • B: Density reduction rate of 2 to 4% • C: Density reduction rate of 5% or more.

[2] = Water-fastness test, recorded article immersed in city water; conditions: Reference Example printed article; city water 5 minutes
Procedure: as §1
The obtained recorded article was immersed in city water for 5 minutes, drawn up from the water and dried, and its change in density before and after the test was determined. • A: Density reduction rate of 1% or less. • B: Density reduction rate of 2 to 4% • C: Density reduction rate of 5% or more (Humidity-fastness)

[3] = Light-fastness test of printed colour patch with xenon fade meter; conditions: Reference Example printed article; 70 Kl×, 520 hours, 24° C., 60% RH
Procedure: as §1
Light-exposure-fastness test was conducted with a xenone fade meter in accordance with the following test conditions. This was to test fastness of an image mimicking sunlight entering through a window in a room.
• Irradiation Intensity: 70 Kl×testing duration 520 hours • Temperature/humidity conditions in a testing vessel: 24° C., 60% RH • Filter: soda lime (outer), borosilicate (inner)
The light-fastness was evaluated as follows: • A: Density remaining rate of 90% or more • B: Density remaining rate of 89 to 80% • C: Density remaining rate of 79% or less (Gas-fastness)

[4] = Gas-fastness test of printed colour patch with gas corrosion tester; conditions: Reference Example printed article; mixed gas, 72 hours, 24° C., 60% RH
Procedure: as §1
Gas-exposure-fastness testing was conducted with a gas corrosion tester under the following test conditions (ANSI/ISA-S71.04-1985). This was to test fastness of an image assuming the effects of various gases in a room.
• Exposing gas composition: H2S: 50 ppb, SO2: 300 ppb, NO2: 1250 ppb, Cl2: 10 ppb, O3: 1200 ppb • Testing duration: 72 hours, Temperature/humidity conditions in a testing vessel: 24° C., 60% RH
The gas-fastness was evaluated as follows: • A: Density remaining rate of 90% or more • B: Density remaining rate of 89 to 80% • C: Density remaining rate of 79% or less (Water-fastness)

C.I. Direct Blue 199 [DBL-199]
Humidity-fastness [1]: B (Density reduction rate of 2 to 4%)
Water-fastness [2]: C (Density reduction rate of 5% or more)
Light-fastness [3]: A (Density remaining rate of 90% or more)
Gas-fastness [4]: C (Density remaining rate of 79% or less)

— patent publication US7211120B2, “Method for forming a pattern of an organic semiconductor film” (Canon Kabushiki Kaisha, priority 2002, dated 2007)
